Values of other authors, collected in patent US6642259B1, “Immune stimulating dietary supplement and method of use thereof” (Trustees of Tufts College, priority 1999, dated 2003).

Assays:
T-cell mediated funtion = conditions: supplementation of the elderly human
T cell function = conditions: supplementation of old mice

Substance: vitamin E
- immunological responses (e.g. T-cell mediated funtion) (T-cell mediated funtion): improved
- T cell function (T cell function): increased
